Data on 26 compounds can be found in patent US8163771B2, “11 β-HSD1 modulators” (Exelixis, Inc., priority 2008, dated 2012).

Molecules are shown by their SMILES. Bounds are passed on as bounds.

T1 sequence (P28845 whole entry): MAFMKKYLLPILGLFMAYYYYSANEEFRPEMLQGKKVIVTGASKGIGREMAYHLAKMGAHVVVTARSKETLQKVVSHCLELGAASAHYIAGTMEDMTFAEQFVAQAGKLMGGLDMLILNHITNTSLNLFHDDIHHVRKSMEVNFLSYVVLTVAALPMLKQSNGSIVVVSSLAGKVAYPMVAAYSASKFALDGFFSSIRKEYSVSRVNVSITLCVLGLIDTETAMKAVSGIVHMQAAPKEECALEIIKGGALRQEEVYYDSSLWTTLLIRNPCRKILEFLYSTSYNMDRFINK

The test concerns the target T1, recombinant human 11 β-HSD1 (Homo sapiens, UniProt P28845).
T1 construct: made in house; host or cells: E. coli
In words: 11 β-HSD1 SPA Assay (Scintillation Proximity Assay). Type of test: biochemical. An outline of the steps: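 E. coli-expressed human enzyme (30-100 nM) with tritiated cortisone 40 nM and NADPH 1 mM in HEPES buffer pH7.4, 2 hours at room temperature. Stopped with protein A SPA beads carrying anti-cortisol antibody and glycyrrhetinic acid; counted after overnight incubation. IC50 from percent inhibition between no-enzyme and no-compound signals.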
(SPA uses beads or plates that emit light when radiolabelled molecules are held near them.)
Usually IC50 stands for the concentration needed to halve the response being measured. Consider `CC(C)(Oc1cc(F)ccc1Cl)C(=O)N[C@H]1C[C@H]2CC[C@@H](C1)N2c1ccc(C(=O)NC2CC2)cn1` [Example 69, 6-[3-endo-({2-[(2-chloro-5-fluorophenyl)oxy]-2-methylpropanoyl}amino)-8-azabicyclo[3.2.1]oct-8-yl]-N-cyclopropylpyridine-3-carboxamide], for which the IC50 was less than 200 nM. Take `CC(C)NC(=O)c1ccc(N2[C@@H]3CC[C@H]2C[C@@H](NC(=O)C(C)(C)Oc2ccc(F)cc2Cl)C3)nc1` [Example 70, 6-[3-endo-({2-[(2-chloro-4-fluorophenyl)oxy]-2-methylpropanoyl}amino)-8-azabicyclo[3.2.1]oct-8-yl]-N-(1-methylethyl)pyridine-3-carboxamide]: the IC50 is less than 200 nM.

Regarding `CC(C)(Oc1cc(Cl)ccc1Cl)C(=O)N[C@H]1C[C@H]2CC[C@@H](C1)N2c1ccc(C(=O)NC2CC2)cn1` [Example 71, N-cyclopropyl-6-[3-endo-({2-[(2,5-dichlorophenyl)oxy]-2-methylpropanoyl}amino)-8-azabicyclo[3.2.1]oct-8-yl]pyridine-3-carboxamide], the IC50 was less than 200 nM. Under `CC(C)(Oc1cc(Cl)ccc1Cl)C(=O)N[C@H]1C[C@H]2CC[C@@H](C1)N2c1ccc(C(=O)NCC(F)(F)F)cn1` [Example 72, 6-[3-endo-({2-[(2,5-dichlorophenyl)oxy]-2-methylpropanoyl}amino)-8-azabicyclo[3.2.1]oct-8-yl]-N-(2,2,2-trifluoroethyl)pyridine-3-carboxamide] stands less than 200 nM; under `CC(C)(Oc1cc(F)ccc1Cl)C(=O)N[C@H]1C[C@H]2CC[C@@H](C1)N2c1ccc(C(=O)NCC(F)(F)F)cn1` [Example 73, 6-[3-endo-({2-[(2-chloro-5-fluorophenyl)oxy]-2-methylpropanoyl}amino)-8-azabicyclo[3.2.1]oct-8-yl]-N-(2,2,2-trifluoroethyl)pyridine-3-carboxamide], less than 200 nM; under `CC(C)(Oc1ccc(F)cc1Cl)C(=O)N[C@H]1C[C@H]2CC[C@@H](C1)N2c1ccc(C(N)=O)cn1` [Example 74, 6-[3-endo-({2-[(2-chloro-4-fluorophenyl)oxy]-2-methylpropanoyl}amino)-8-azabicyclo[3.2.1]oct-8-yl]pyridine-3-carboxamide], less than 200 nM.

In the case of `CC(C)(Oc1cc(F)c(F)cc1Cl)C(=O)N[C@H]1C[C@H]2CC[C@@H](C1)N2c1ccc(C(=O)NCC(F)(F)F)cn1` [Example 75, 6-[3-endo-({2-[(2-chloro-4,5-difluorophenyl)oxy]-2-methylpropanoyl}amino)-8-azabicyclo[3.2.1]oct-8-yl]-N-(2,2,2-trifluoroethyl)pyridine-3-carboxamide], the IC50 is less than 200 nM. As to `CC(C)(Oc1cc(F)c(Cl)cc1Cl)C(=O)N[C@H]1C[C@H]2CC[C@@H](C1)N2c1ccc(C(N)=O)cn1` [Example 76, 6-[3-endo-({2-[(2,4-dichloro-5-fluorophenyl)oxy]-2-methylpropanoyl}amino)-8-azabicyclo[3.2.1]oct-8-yl]pyridine-3-carboxamide], the IC50 was less than 200 nM. The result for `CC(C)(Oc1ccc(Cl)c(F)c1)C(=O)N[C@H]1C[C@H]2CC[C@@H](C1)N2c1ccc(C(=O)NCC(F)(F)F)cn1` [Example 77, 6-[3-endo-({2-[(4-chloro-3-fluorophenyl)oxy]-2-methylpropanoyl}amino)-8-azabicyclo[3.2.1]oct-8-yl]-N-(2,2,2-trifluoroethyl)pyridine-3-carboxamide] reads less than 200 nM; that for `CC(C)(Oc1ccc(F)c(F)c1)C(=O)N[C@H]1C[C@H]2CC[C@@H](C1)N2c1ccc(C(=O)NCC(F)(F)F)cn1` [Example 78, 6-[3-endo-({2-[(3,4-difluorophenyl)oxy]-2-methylpropanoyl}amino)-8-azabicyclo[3.2.1]oct-8-yl]-N-(2,2,2-trifluoroethyl)pyridine-3-carboxamide], less than 200 nM. Turning to `CC(C)NC(=O)c1ccc(N2[C@@H]3CC[C@H]2C[C@@H](NC(=O)C(C)(C)Oc2ccc(Cl)c(Cl)c2)C3)nc1` [Example 79, 6-[3-endo-({2-[(3,4-dichlorophenyl)oxy]-2-methylpropanoyl}amino)-8-azabicycio[3.2.1]oct-8-yl]-N-(1-methylethyl)pyridine-3-carboxamide], the IC50 was less than 200 nM. On to `COCCNC(=O)c1ccc(N2[C@@H]3CC[C@H]2C[C@@H](NC(=O)C(C)(C)Oc2ccc(Cl)cc2Cl)C3)nc1` [Example 80, 6-[3-endo-({2-[(2,4-dichlorophenyl)oxy]-2-methylpropanoyl}amino)-8-azabicyclo[3.2.1]oct-8-yl]-N-[2-(methyloxy)ethyl]pyridine-3-carboxamide], for which the IC50 is less than 200 nM. Take `CCC(Oc1ccc(Cl)cc1)C(=O)N[C@H]1C[C@H]2CC[C@@H](C1)N2c1ccc(C(=O)NCCOC)cn1` (stereo partly drawn) [Example 81, 6-[3-endo-({2-[(4-chlorophenyl)oxy]butanoyl}amino)-8-azabicyclo[3.2.1]oct-8-yl]-N-[2-(methyloxy)ethyl]pyridine-3-carboxamide]: the IC50 was less than 2000 nM. As to `CC(Oc1ccc(Cl)cc1Cl)C(=O)N[C@H]1C[C@H]2CC[C@@H](C1)N2c1ccc(C(=O)NC2CC2)cn1` (stereo partly drawn) [Example 82, N-cyclopropyl-6-[3-endo-({2-[(2,4-dichlorophenyl)oxy]propanoyl}amino)-8-azabicyclo[3.2.1]oct-8-yl]pyridine-3-carboxamide], the IC50 is less than 200 nM. Regarding `CC(C)(Oc1ccc(Cl)c(Cl)c1)C(=O)N[C@H]1C[C@H]2CC[C@@H](C1)N2c1ccc(C(=O)NCC(F)(F)F)cn1` [Example 83, 6-[3-endo-({2-[(3,4-dichlorophenyl)oxy]-2-methylpropanoyl}amino)-8-azabicyclo[3.2.1]oct-8-yl]-N-(2,2,2-trifluoroethyl)pyridine-3-carboxamide], the IC50 is less than 200 nM. The result for `CC(C)NC(=O)c1ccc(N2[C@@H]3CC[C@H]2C[C@@H](NC(=O)C(C)(C)Oc2ccc(Cl)c(F)c2)C3)nc1` [Example 84, 6-[3-endo-({2-[(4-chloro-3-fluorophenyl)oxy]-2-methylpropanoyl}amino)-8-azabicyclo[3.2.1]oct-8-yl]-N-(1-methylethyl)pyridine-3-carboxamide] reads less than 200 nM; that for `CC(C)NC(=O)c1ccc(N2[C@@H]3CC[C@H]2C[C@@H](NC(=O)C(C)(C)Oc2ccc(F)c(F)c2)C3)nc1` [Example 85, 6-[3-endo-({2-[(3,4-difluorophenyl)oxy]-2-methylpropanoyl}amino)-8-azabicyclo[3.2.1]oct-8-yl]-N-(1-methylethyl)pyridine-3-carboxamide], less than 2000 nM. Under `CC(C)(Oc1ccc(Cl)cc1Cl)C(=O)N[C@H]1C[C@H]2CC[C@@H](C1)N2c1ncc(C(=O)NC2CC2)cc1Cl` [Example 86, 5-chloro-N-cyclopropyl-6-[3-endo-({2-[(2,4-dichlorophenyl)oxy]-2-methylpropanoyl}amino)-8-azabicyclo[3.2.1]oct-8-yl]pyridine-3-carboxamide] stands less than 200 nM; under `CC(=O)c1ccc(N2[C@@H]3CC[C@H]2C[C@@H](NC(=O)C(C)(C)Oc2ccc(Cl)cc2Cl)C3)nc1` [Example 87, N-[8-(5-acetylpyridin-2-yl)-8-azabicyclo[3.2.1]oct-3-endo-yl]-2-[(2,4-dichlorophenyl)oxy]-2-methylpropanamide], less than 200 nM; under `CC(C)(Oc1ccc(Cl)cc1Cl)C(=O)N[C@H]1C[C@H]2CC[C@@H](C1)N2c1ccc(N)cn1` [Example 88, N-[8-(5-aminopyridin-2-yl)-8-azabicyclo[3.2.1]oct-3-endo-yl]-2-[(2,4-dichlorophenyl)oxy]-2-methylpropanamide], less than 200 nM.

Turning to `COCCNC(=O)c1ccc(N2[C@@H]3CC[C@H]2C[C@@H](NC(=O)C(C)(C)Oc2ccc(Cl)cc2)C3)nc1` [Example 89, 6-[3-endo-({2-[(4-chlorophenyl)oxy]-2-methylpropanoyl}amino)-8-azabicyclo[3.2.1]oct-8-yl]-N-[2-(methyloxy)ethyl]pyridine-3-carboxamide], the IC50 was less than 200 nM. On to `CC(C)(Oc1cc(F)c(Cl)cc1Cl)C(=O)N[C@H]1C[C@H]2CC[C@@H](C1)N2c1ccc(C(=O)NCC(F)(F)F)cn1` [Example 90, 6-[3-endo-({2-[(2,4-dichloro-5-fluorophenyl)oxy]-2-methylpropanoyl}amino)-8-azabicyclo[3.2.1]oct-8-yl]-N-(2,2,2-trifluoroethyl)pyridine-3-carboxamide], for which the IC50 was less than 200 nM.

As for `CC(C)(Oc1cc(F)c(Cl)cc1Cl)C(=O)N[C@H]1C[C@H]2CC[C@@H](C1)N2c1ccc(C(=O)NC2CC2)cn1` [Example 91, N-cyclopropyl-6-[3-endo-({2-[(2,4-dichloro-5-fluorophenyl)oxy]-2-methylpropanoyl}amino)-8-azabicyclo[3.2.1]oct-8-yl]pyridine-3-carboxamide], the IC50 was less than 200 nM. Under `CC(C)(Oc1ccc(Cl)cc1Cl)C(=O)N[C@H]1C[C@H]2CC[C@@H](C1)N2c1ccc(NC(=O)C2CC2)cn1` [Example 92, N-{6-[3-endo-({2-[(2,4-dichlorophenyl)oxy]-2-methylpropanoyl}amino)-8-azabicyclo[3.2.1]oct-8-yl]pyridin-3-yl}cyclopropanecarboxamide] stands less than 200 nM; under `CC(C)(Oc1ccc(F)c(Cl)c1)C(=O)N[C@H]1C[C@H]2CC[C@@H](C1)N2c1ccc(C(=O)NCC(F)(F)F)cn1` [Example 93, 6-[3-endo-({2-[(3-chloro-4-fluorophenyl)oxy]-2-methylpropanoyl}amino)-8-azabicyclo[3.2.1]oct-8-yl]-N-(2,2,2-trifluoroethyl)pyridine-3-carboxamide], less than 200 nM; under `CC(=O)Nc1ccc(N2[C@@H]3CC[C@H]2C[C@@H](NC(=O)C(C)(C)Oc2ccc(Cl)cc2Cl)C3)nc1` [Example 94, N-{8-[5-(acetylamino)pyridin-2-yl]-8-azabicyclo[3.2.1]oct-3-endo-yl}-2-[(2,4-dichlorophenyl)oxy]-2-methylpropanamide], less than 200 nM.
